In patent publication US20160194299A1 (priority 2013, published 2016):
In brackets after ≈: the same amount, converted by molar mass. Where two headings read alike, the source gives them in different places.

Key:
[1] = test system: Mtb; assay: microbe, parasite or virus in culture; format: cell-based, Mycobacterium tuberculosis; settings: Mycobacterium tuberculosis, read-out: MIC (I)
[2] = test system: Mtb; assay: microbe, parasite or virus in culture; format: cell-based, Mycobacterium tuberculosis; settings: Mycobacterium tuberculosis, read-out: MIC (III)
[3] = in vitro; settings: African green monkey

SMILES	MIC [1] [µg/mL]	MIC [2] [µg/mL]	CC50 [3] [µg/mL]
CCOC(=O)NC(=O)c1ccsc1NC(=O)c1ccc2nccn2n1 [Compound 77]	1 to 3 (≈ 2.78 to 8.35 µM)	> 25	> 50
CCOC(=O)NC(=O)c1ccsc1NC(=O)c1nc2cnccc2s1 [Compound 82]	< 1	< 5	> 50
CCOC(=O)NC(=O)c1ccsc1NC(=O)c1nc2cccnc2s1 [Compound 83]	< 1	< 5	> 50
CCOC(=O)NC(=O)c1ccsc1NC(=O)c1nc2c(s1)CNCC2 [Compound 84]	1 to 3 (≈ 2.63 to 7.89 µM)	> 25	> 50
CCOC(=O)NC(=O)c1ccsc1NC(=O)c1nc2c(s1)CCN(C)C2 [Compound 85]	1 to 3 (≈ 2.53 to 7.6 µM)	< 5	> 50
CCOC(=O)NC(=O)c1ccsc1NC(=O)c1ccnnc1 [Compound 86]	1 to 3 (≈ 3.12 to 9.37 µM)	5 to 25 (≈ 15.6 to 78 µM)	> 50
CCOC(=O)NC(=O)c1ccsc1NC(=O)c1cnc2ccccc2n1 [Compound 87]	< 1	< 5	> 50
CCOC(=O)NC(=O)c1ccsc1NC(=O)c1sc2ccccc2c1Cl [Compound 88]	< 1	5 to 25 (≈ 12.2 to 61.1 µM)	> 50
CCOC(=O)NC(=O)c1ccsc1NC(=O)c1ccc2ncccc2c1 [Compound 89]	1 to 3 (≈ 2.71 to 8.12 µM)	5 to 25 (≈ 13.5 to 67.7 µM)	> 50
CCOC(=O)NC(=O)c1ccsc1NC(=O)c1cc2ccccc2s1 [Compound 90]	< 1	< 5	25 to 50 (≈ 66.8 to 134 µM)
CCOC(=O)NC(=O)c1ccsc1NC(=O)c1ccc(=O)[nH]n1 [Compound 91]	1 to 3 (≈ 2.97 to 8.92 µM)	< 5	> 50
CCOC(=O)NC(=O)c1ccsc1NC(=O)C1COc2ccccc2O1 (centres unmarked) [Compound 92]	> 3	5 to 25 (≈ 13.3 to 66.4 µM)	25 to 50 (≈ 66.4 to 133 µM)
CCOC(=O)NC(=O)c1ccsc1NC(=O)c1cn2ncccc2n1 [Compound 93]	< 1	< 5	> 50
CCOC(=O)NC(=O)c1ccsc1NC(=O)c1nc2cnc(C)cc2s1 [Compound 94]	< 1	> 25	> 50
CCOC(=O)NC(=O)c1ccsc1NC(=O)c1nc2c(s1)CCN(c1ccccc1)C2 [Compound 97]	< 1	> 25	> 50
C=CCOC(=O)NC(=O)c1ccsc1NC(=O)c1nc2cnccc2s1 [Compound 99]	< 1	< 5	25 to 50 (≈ 64.4 to 129 µM)

SMILES	MIC [1] [µg/mL]	MIC [2] [µg/mL]	CC50 [3] [µg/mL]
C#CCOC(=O)NC(=O)c1ccsc1NC(=O)c1nc2cnccc2s1 [Compound 100]	< 1	> 25	25 to 50 (≈ 64.7 to 129 µM)
O=C(NC(=O)c1ccsc1NC(=O)c1nc2cnccc2s1)OCc1ccccc1 [Compound 101]	< 1	5 to 25 (≈ 11.4 to 57 µM)	> 50
O=C(NC(=O)c1ccsc1NC(=O)c1nc2cnccc2s1)OC1CCOC1 (centres unmarked) [Compound 102]	< 1	< 5	> 50
COCCOC(=O)NC(=O)c1ccsc1NC(=O)c1nc2cnccc2s1 [Compound 103]	< 1	> 25	> 50
CC(C)OC(=O)NC(=O)c1cc(F)sc1NC(=O)c1nc2cnccc2s1 [Compound 104]	< 1	< 5	< 25
CCOC(=O)NC(=O)c1ccsc1NC(=O)c1cccc2cccnc12 [Compound 112]	> 3	> 25	> 50
CCOC(=O)NC(=O)c1ccsc1NC(=O)c1ccc2cnccc2n1 [Compound 113]	> 3	> 25	> 50
CCOC(=O)NC(=O)c1ccsc1NC(=O)c1cc(OC)c2ccccc2n1 [Compound 114]	> 3	> 25	> 50
CCOC(=O)NC(=O)c1ccsc1NC(=O)c1cc(O)nc2ccccc12 [Compound 115]	> 3	> 25	> 50
CCOC(=O)NC(=O)c1ccsc1NC(=O)c1cc2ccccc2cn1 [Compound 116]	> 3	> 25	> 50
CCOC(=O)NC(=O)c1ccsc1NC(=O)c1cc(C(F)(F)F)nc2ccccc12 [Compound 117]	> 3	> 25	< 25
CCOC(=O)NC(=O)c1ccsc1NC(=O)c1ccnc(NC(=O)C(C)(C)C)n1 [Compound 118]	> 3	5 to 25 (≈ 11.9 to 59.6 µM)	> 50
CCOC(=O)NC(=O)c1ccsc1NC(=O)c1ccc2c(c1)CCCC2 [Compound 119]	> 3	> 25	> 50
CCOC(=O)NC(=O)c1ccsc1NC(=O)c1cc2nc(C)cc(C)n2n1 [Compound 121]	> 3	> 25	> 50
CCOC(=O)NC(=O)c1c(NC(=O)c2nc3ccccc3s2)sc2c1CCOC2 [Compound 242]	–	> 25	> 50
